Each block holds one molecule with its values, some of them ahead of it.
Tests used:
[1] = target: Histone deacetylase 1 (Homo sapiens, UniProt Q13547); experiment: Inhibition of HDAC1 (unknown origin) using RHKK(Ac)AMC fluorogenic peptide as substrate preincubated for 10 mins followed by substrate addition for 1 hr in presence of ATP by fluoroscence based assay
[2] = Metabolic stability in human liver microsomes assessed as half life measured for 75 to 130 mins by LC-MS/MS analysis; format: ADME, Microsome; settings: time 75-130 min; for half-life: liver microsomes; for t1/2: microsomes
[3] = Metabolic stability in human liver microsomes assessed as intrinsic clearance measured for 75 to 130 mins by LC-MS/MS analysis; format: ADME, Microsome; settings: time 75-130 min; for microsomal CLint: liver microsomes, read-out: CLH
[4] = test system: TMD8; experiment: Antiproliferative activity against human TMD8 cells assessed as remaining cell activity at 2 uM incubated for 72 hrs by luminescence assay relative to control; format: functional
[5] = test system: HCT-116; experiment: Antiproliferative activity against human HCT-116 cells assessed as remaining cell activity at 2 uM incubated for 72 hrs by luminescence assay relative to control; format: functional
[6] = test system: A549; experiment: Antiproliferative activity against human A549 cells assessed as remaining cell activity at 2 uM incubated for 72 hrs by luminescence assay relative to control; format: functional
[7] = test system: MDA-MB-231; experiment: Antiproliferative activity against human MDA-MB-231 cells assessed as remaining cell activity at 2 uM incubated for 72 hrs by luminescence assay relative to control; format: functional
[8] = test system: MDA-MB-231; experiment: Antiproliferative activity against human MDA-MB-231 cells incubated for 72 hrs by luminescence assay; format: functional, cell-based; settings: MDA-MB-231, 72 h
[9] = test system: A549; experiment: Antiproliferative activity against human A549 cells incubated for 72 hrs by luminescence assay; format: functional, cell-based; settings: A549, 72 h
[10] = test system: NCI-H460; experiment: Antiproliferative activity against human NCI-H460 cells incubated for 72 hrs by luminescence assay; format: functional, cell-based; settings: NCI-H460, 72 h
[11] = test system: SK-OV-3; experiment: Antiproliferative activity against human SK-OV-3 cells incubated for 72 hrs by luminescence assay; format: functional, cell-based; settings: SK-OV-3, 72 h
[12] = test system: HT-29; experiment: Antiproliferative activity against human HT-29 cells incubated for 72 hrs by luminescence assay; format: functional, cell-based; settings: HT-29, 72 h
[13] = test system: COLO-678; experiment: Antiproliferative activity against human COLO-678 cells incubated for 72 hrs by luminescence assay; format: functional, cell-based; settings: COLO-678, 72 h
[14] = test system: NCI-H441; experiment: Antiproliferative activity against human NCI-H441 cells incubated for 72 hrs by luminescence assay; format: functional, cell-based; settings: NCI-H441, 72 h
[15] = test system: CWR22R; experiment: Antiproliferative activity against human 22Rv1 cells incubated for 72 hrs by luminescence assay; format: functional, cell-based; settings: 22Rv1, 72 h
[16] = test system: 786-0; experiment: Antiproliferative activity against human 786-O cells incubated for 72 hrs by luminescence assay; format: functional, cell-based; settings: 786-0, 72 h
[17] = test system: TMD8; experiment: Antiproliferative activity against human TMD8 cells incubated for 72 hrs by luminescence assay; format: functional, cell-based; settings: TMD8, 72 h
[18] = test system: DOHH-2; experiment: Antiproliferative activity against human DOHH-2 cells incubated for 72 hrs by luminescence assay; format: functional, cell-based; settings: DOHH-2, 72 h
[19] = test system: CCRF-CEM; experiment: Antiproliferative activity against human CCRF-CEM cells incubated for 72 hrs by luminescence assay; format: functional, cell-based
[20] = test system: SU-DHL-2; experiment: Antiproliferative activity against human SUDHL2 cells incubated for 72 hrs by luminescence assay; format: functional, cell-based; settings: SU-DHL-2, 72 h
[21] = test system: Rec1; experiment: Antiproliferative activity against human REC1 cells incubated for 72 hrs by luminescence assay; format: functional, cell-based; settings: Rec1, 72 h
[22] = test system: MOLT-4; experiment: Antiproliferative activity against human MOLT-4 cells incubated for 72 hrs by luminescence assay; format: functional, cell-based; settings: MOLT-4, 72 h
[23] = test system: HuT78; experiment: Antiproliferative activity against human HuT78 cells incubated for 72 hrs by luminescence assay; format: functional, cell-based; settings: HuT78, 72 h
[24] = test system: RS4-11; experiment: Antiproliferative activity against human RS4-11 cells incubated for 72 hrs by luminescence assay; format: functional, cell-based; settings: RS4-11, 72 h
[25] = Metabolic stability in mouse liver microsomes assessed as half life measured for 75 to 130 mins by LC-MS/MS analysis; format: ADME, Microsome; settings: time 75-130 min
[26] = Cmax in ICR mouse at 25 mg/kg, po measured upto 24 hrs by LC-MS/MS analysis; format: ADME, organism-based; set-up: time < 24 hrs, dose 25 mg/kg, route po; settings: in vivo
[27] = Half life in ICR mouse at 25 mg/kg, po measured upto 24 hrs by LC-MS/MS analysis; format: ADME, organism-based; settings: in vivo
[28] = AUC (0 to infinity) in ICR mouse at 2 mg/kg, iv measured upto 24 hrs by LC-MS/MS analysis; format: ADME, organism-based; set-up: time < 24 hrs, dose 2 mg/kg, route iv; settings: in vivo
[29] = AUC (0 to infinity) in ICR mouse at 25 mg/kg, po measured upto 24 hrs by LC-MS/MS analysis; format: ADME, organism-based; set-up: time < 24 hrs, dose 25 mg/kg, route po; settings: in vivo
[30] = MRT in ICR mouse at 25 mg/kg, po measured upto 24 hrs by LC-MS/MS analysis; format: ADME, organism-based; settings: in vivo
[31] = Oral bioavailability in ICR mouse at 25 mg/kg measured upto 24 hrs by LC-MS/MS analysis; format: ADME, organism-based; settings: in vivo

Sequence of Histone deacetylase 1 (Q13547 whole entry): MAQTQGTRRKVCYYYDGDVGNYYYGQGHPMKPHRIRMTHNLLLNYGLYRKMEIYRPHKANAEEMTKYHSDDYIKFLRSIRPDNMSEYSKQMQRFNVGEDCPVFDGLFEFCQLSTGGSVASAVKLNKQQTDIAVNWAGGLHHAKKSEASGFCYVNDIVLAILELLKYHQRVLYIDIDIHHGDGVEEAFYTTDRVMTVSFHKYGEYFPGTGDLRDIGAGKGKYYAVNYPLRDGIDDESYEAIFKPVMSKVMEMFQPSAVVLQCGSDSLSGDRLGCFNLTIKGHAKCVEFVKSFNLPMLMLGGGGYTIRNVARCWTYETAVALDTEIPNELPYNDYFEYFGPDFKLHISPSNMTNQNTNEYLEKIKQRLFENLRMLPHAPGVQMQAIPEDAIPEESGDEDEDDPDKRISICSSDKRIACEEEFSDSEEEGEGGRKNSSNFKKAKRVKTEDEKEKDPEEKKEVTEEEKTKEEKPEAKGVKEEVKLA

Compound: Nc1cc(F)ccc1NC(=O)c1ccc(CN2CCC/C(=C\c3ccncc3)C2=O)cc1
IC50 [1]: 2510 nM

Compound: Nc1cc(F)ccc1NC(=O)c1ccc(CN2CCC/C(=C\c3ccc(Cl)cc3)C2=O)cc1
IC50 [1]: 617 nM

Compound: Nc1cc(Br)ccc1NC(=O)c1ccc(CN2CCC/C(=C\c3ccc(Cl)cc3)C2=O)cc1
IC50 [1]: > 10000 nM

Compound: Nc1ccccc1NC(=O)c1ccc(CN2CCC/C(=C\c3ccc4ccccc4c3)C2=O)cc1
IC50 [1]: 692 nM

Compound: Nc1cc(F)ccc1NC(=O)c1ccc(CNC(=O)/C=C/c2cccnc2)cc1 [TUCIDINOSTAT]
t1/2 [2]: 376 min
Intrinsic clearance in human liver microsomes [3]: 1.7 µL/min/mg
IC50 [8]: 9.52 µM
Activity [4]: 5.96%
Activity [5]: 102.26%
Activity [6]: 96.6%
Activity [7]: 69.91%
IC50 [9]: 2790 nM
IC50 [10]: 2340 nM
IC50 [11]: 8.46 µM
IC50 [12]: 6.04 µM
IC50 [13]: > 10 µM
IC50 [14]: 2620 nM
IC50 [15]: 1080 nM
IC50 [16]: 630 nM
IC50 [17]: 480 nM
IC50 [18]: 530 nM
IC50 [19]: 830 nM
IC50 [20]: 560 nM
IC50 [21]: 1010 nM
IC50 [22]: 750 nM
IC50 [23]: 2420 nM
IC50 [24]: 600 nM
half-life [25]: 78 min
Cmax [26]: 1220 ng/mL
half-life [27]: 240 min
AUC(0-inf) [28]: 1350 ng·h/mL
AUC(0-inf) [29]: 3520 ng·h/mL
MRT [30]: 4.2 h
bioavailability [31]: 20.8%

Compound: Nc1cc(F)ccc1NC(=O)c1ccc(CN2CCC/C(=C\c3ccccn3)C2=O)cc1
IC50 [1]: 1350 nM

Compound: Nc1cc(F)ccc1NC(=O)c1ccc(CN2CCC/C(=C\c3ccc(Br)cc3)C2=O)cc1
IC50 [1]: 1960 nM

Compound: Nc1cc(F)ccc1NC(=O)c1ccc(CN2CC/C(=C\c3ccccn3)C2=O)cc1
IC50 [1]: 866 nM
t1/2 [2]: 936 min
Intrinsic clearance in human liver microsomes [3]: 10.2 µL/min/mg
Activity [4]: 29.75%
Activity [5]: 121.48%
Activity [6]: 93.24%
Activity [7]: 83.37%

Compound: Nc1cc(F)ccc1NC(=O)c1ccc(CN2CCC/C(=C\c3ccccc3)C2=O)cc1
IC50 [1]: 2210 nM

Compound: Nc1cc(F)ccc1NC(=O)c1ccc(CN2CCC/C(=C\c3ccco3)C2=O)cc1
IC50 [1]: 1200 nM

Compound: Nc1ccccc1NC(=O)c1ccc(CN2CCC/C(=C\c3ccc(Cl)c(C(F)(F)F)c3)C2=O)cc1
IC50 [1]: 1490 nM

Compound: COc1ccc(/C=C2\CCCN(Cc3ccc(C(=O)Nc4ccc(F)cc4N)cc3)C2=O)cc1
IC50 [1]: 906 nM

Compound: Nc1cc(F)ccc1NC(=O)c1ccc(CN2CCC/C(=C\c3cccc(Cl)c3)C2=O)cc1
IC50 [1]: 1940 nM

Compound: Cc1ccc(/C=C2\CCCN(Cc3ccc(C(=O)Nc4ccc(F)cc4N)cc3)C2=O)cc1
IC50 [1]: 794 nM

Compound: Nc1cc(F)ccc1NC(=O)c1ccc(CN2CCC/C(=C\c3ccc(F)cc3)C2=O)cc1
IC50 [1]: 2630 nM

Compound: Nc1cc(F)ccc1NC(=O)c1ccc(CN2CCC/C(=C\c3ccccc3Cl)C2=O)cc1
IC50 [1]: 1090 nM

Compound: Cc1cccc(/C=C2\CCCN(Cc3ccc(C(=O)Nc4ccc(F)cc4N)cc3)C2=O)c1
IC50 [1]: 928 nM

Compound: Nc1ccccc1NC(=O)c1ccc(CN2CCC/C(=C\c3cccc(Cl)c3)C2=O)cc1
IC50 [1]: 636 nM

Compound: Nc1cc(F)ccc1NC(=O)c1ccc(CN2CCC/C(=C\c3ccc4ccccc4c3)C2=O)cc1
IC50 [1]: 1200 nM

Compound: Nc1cc(F)ccc1NC(=O)c1ccc(CN2CCC/C(=C\c3cccnc3)C2=O)cc1
IC50 [1]: 2340 nM

Compound: Cc1ccccc1/C=C1\CCCN(Cc2ccc(C(=O)Nc3ccc(F)cc3N)cc2)C1=O
IC50 [1]: 2450 nM

Compound: Cc1ccc(NC(=O)c2ccc(CN3CCC/C(=C\c4ccc(Cl)cc4)C3=O)cc2)c(N)c1
IC50 [1]: > 10000 nM

More lines, in order of falling IC50 [1], values ahead:

IC50 [1]: 572 nM
Compound: Nc1ccccc1NC(=O)c1ccc(CN2CCC/C(=C\c3ccc(Cl)c(F)c3)C2=O)cc1

IC50 [1]: 487 nM
half-life [2]: 145 min
microsomal CLint [3]: 9.57 µL/min/mg
Compound: Nc1ccccc1NC(=O)c1ccc(CN2CCC/C(=C\c3ccc(Cl)cc3)C2=O)cc1

IC50 [1]: 424 nM
half-life [2]: 126 min
microsomal CLint [3]: 11.3 µL/min/mg
Compound: Nc1cc(F)ccc1NC(=O)c1ccc(CN2CC/C(=C\c3ccccc3)C2=O)cc1

IC50 [1]: 396 nM
half-life [2]: 149 min
microsomal CLint [3]: 9.3 µL/min/mg
Compound: Nc1ccccc1NC(=O)c1ccc(CN2CCC/C(=C\c3ccccc3Cl)C2=O)cc1

IC50 [1]: 303 nM
half-life [2]: 311 min
microsomal CLint [3]: 4.45 µL/min/mg
Compound: Nc1ccccc1NC(=O)c1ccc(CN2CCC/C(=C\c3ccco3)C2=O)cc1
Activity [4]: 5.48%
Activity [5]: 44.43%
Activity [6]: 61.8%
Activity [7]: 53.88%

IC50 [1]: 270 nM
half-life [2]: 467 min
microsomal CLint [3]: 2.96 µL/min/mg
Compound: Nc1ccccc1NC(=O)c1ccc(CN2CCC/C(=C\c3ccncc3)C2=O)cc1
Activity [4]: 26.34%
Activity [5]: 66.57%
Activity [6]: 98.64%
Activity [7]: 77.05%

IC50 [1]: 219 nM
half-life [2]: 276 min
microsomal CLint [3]: 5.02 µL/min/mg
Compound: Nc1ccccc1NC(=O)c1ccc(CN2CCC/C(=C\c3cccnc3)C2=O)cc1
Activity [4]: 23.83%
Activity [5]: 57.19%
Activity [6]: 72.41%
Activity [7]: 58.3%

IC50 [1]: 195 nM
half-life [2]: 126 min
microsomal CLint [3]: 11 µL/min/mg
Compound: Nc1ccccc1NC(=O)c1ccc(CN2CCC/C(=C\c3ccccc3)C2=O)cc1

IC50 [1]: 82 nM
Compound: Nc1ccccc1NC(=O)c1ccc(CN2CC/C(=C\c3ccccn3)C2=O)cc1
Activity [4]: 15.5%
Activity [5]: 56.41%
Activity [6]: 74.98%
Activity [7]: 60.99%

— ChEMBL document CHEMBL5154672, “Design and synthesis of HDAC inhibitors to enhance the therapeutic effect of diffuse large B-cell lymphoma by improving metabolic stability and pharmacokinetic characteristics” (Eur J Med Chem, 2022)
